Measurements taken from PubChem BioAssay (NCI).
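Method: 48-hour compound exposure of cells in 96-well plates, five concentrations, linear interpolation of endpoints. GI50 marks 50% less growth. At the TGI there is no net growth.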

Legend:
Assay in all cases: growth of human tumour cells (NCI), 48 h
[1] = test system: NCI-H460 lung
[2] = test system: LOX IMVI melanoma
[3] = test system: HL-60(TB) leukemia
[4] = test system: 786-0 renal
[5] = test system: MALME-3M melanoma
[6] = test system: OVCAR-3 ovarian
[7] = test system: OVCAR-5 ovarian
[8] = test system: HT29 colon
[9] = test system: MDA-MB-231 breast
[10] = test system: MOLT-4 leukemia
[11] = test system: A498 renal
[12] = test system: CAKI-1 renal
[13] = test system: K-562 leukemia
[14] = test system: HCT-15 colon
[15] = test system: BT-549 breast
[16] = test system: SNB-75 CNS
[17] = test system: HCT-116 colon
[18] = test system: NCI-H522 lung
[19] = test system: UO-31 renal
[20] = test system: NCI-H23 lung
[21] = test system: SN12C renal
[22] = test system: PC-3 prostate
[23] = test system: SW-620 colon
[24] = test system: SK-MEL-5 melanoma
[25] = test system: T-47D breast
[26] = test system: HCC-2998 colon
[27] = test system: RPMI-8226 leukemia
[28] = test system: TK-10 renal
[29] = test system: SF-295 CNS
[30] = test system: U251 CNS
[31] = test system: CCRF-CEM leukemia
[32] = test system: SK-OV-3 ovarian
[33] = test system: SK-MEL-2 melanoma
[34] = test system: SF-539 CNS
[35] = test system: KM12 colon
[36] = test system: ACHN renal
[37] = test system: IGROV1 ovarian
[38] = test system: NCI/ADR-RES ovarian
[39] = test system: A549 NSCLC
[40] = test system: DU-145 prostate
[41] = test system: HOP-92 NSCLC
[42] = test system: RXF 393 renal
[43] = test system: HOP-62 NSCLC
[44] = test system: MCF7 breast
[45] = test system: UACC-257 melanoma
[46] = test system: EKVX NSCLC
[47] = test system: MDA-MB-435
[48] = test system: OVCAR-4 ovarian
[49] = test system: SF-268 CNS
[50] = test system: M14 melanoma
[51] = test system: UACC-62 melanoma
[52] = test system: OVCAR-8 ovarian
[53] = test system: SNB-19 CNS
[54] = test system: NCI-H226 lung
[55] = test system: SK-MEL-28 melanoma
[56] = test system: SR leukemia
[57] = test system: COLO 205 colon

SMILES: N#Cc1c(N)nc2c(c1-c1ccc(Cl)cc1)COc1ccc(F)cc1-2
- GI50 [1]: 37.1 µM
- TGI [1]: > 100 µM
- GI50 [2]: 18.4 µM
- TGI [2]: 40.2 µM
- GI50 [3]: 26.5 µM
- TGI [3]: 53.4 µM
- GI50 [4]: 28.7 µM
- TGI [4]: 72.8 µM
- GI50 [5]: 40.3 µM
- TGI [5]: 81.7 µM
- GI50 [6]: 23.2 µM
- TGI [6]: 50.2 µM
- GI50 [7]: 27.5 µM
- TGI [7]: > 100 µM
- GI50 [8]: 39.4 µM
- TGI [8]: > 100 µM
- GI50 [9]: 11.9 µM
- TGI [9]: 51.8 µM
- GI50 [10]: 22.2 µM
- TGI [10]: 44.6 µM
- GI50 [11]: 22.3 µM
- TGI [11]: 52.3 µM
- GI50 [12]: 25.2 µM
- TGI [12]: 66.3 µM
- GI50 [13]: 15.5 µM
- TGI [13]: 34.1 µM
- GI50 [14]: 24.1 µM
- TGI [14]: 84.7 µM
- GI50 [15]: 22 µM
- TGI [15]: 51.2 µM
- GI50 [16]: > 100 µM
- TGI [16]: > 100 µM
- GI50 [17]: 36.8 µM
- TGI [17]: > 100 µM
- GI50 [18]: 23 µM
- TGI [18]: 59.5 µM
- GI50 [19]: 13.8 µM
- TGI [19]: 39.2 µM
- GI50 [20]: 28.4 µM
- TGI [20]: > 100 µM
- GI50 [21]: 19.1 µM
- TGI [21]: 47.7 µM
- GI50 [22]: 29.7 µM
- TGI [22]: 65.7 µM
- GI50 [23]: 31.1 µM
- TGI [23]: 97.4 µM
- GI50 [24]: 20.6 µM
- TGI [24]: 37.6 µM
- GI50 [25]: 43.7 µM
- TGI [25]: > 100 µM
- GI50 [26]: 23.3 µM
- TGI [26]: 68.8 µM
- GI50 [27]: 18.7 µM
- TGI [27]: 41.2 µM
- GI50 [28]: 34.7 µM
- TGI [28]: > 100 µM
- GI50 [29]: 16 µM
- TGI [29]: 37.1 µM
- GI50 [30]: 31.7 µM
- TGI [30]: > 100 µM
- GI50 [31]: 44.2 µM
- TGI [31]: > 100 µM
- GI50 [32]: > 100 µM
- TGI [32]: > 100 µM
- GI50 [33]: 19 µM
- TGI [33]: 64.2 µM
- GI50 [34]: 20.1 µM
- TGI [34]: 40.1 µM
- GI50 [35]: 29.4 µM
- TGI [35]: 80 µM
- GI50 [36]: 15.9 µM
- TGI [36]: 52.1 µM
- GI50 [37]: 14.8 µM
- TGI [37]: > 100 µM
- GI50 [38]: 22.9 µM
- TGI [38]: 54.6 µM
- GI50 [39]: 43.5 µM
- TGI [39]: > 100 µM
- GI50 [40]: 29.9 µM
- TGI [40]: > 100 µM
- GI50 [41]: 31.6 µM
- TGI [41]: > 100 µM
- GI50 [42]: 20.3 µM
- TGI [42]: > 100 µM
- GI50 [43]: 25.1 µM
- TGI [43]: 75.2 µM
- GI50 [44]: 17.9 µM
- TGI [44]: > 100 µM
- GI50 [45]: 29.4 µM
- TGI [45]: 90.8 µM
- GI50 [46]: 22 µM
- TGI [46]: 63.3 µM
- GI50 [47]: 20.7 µM
- TGI [47]: 45.2 µM
- GI50 [48]: 34.7 µM
- TGI [48]: > 100 µM
- GI50 [49]: 37.1 µM
- TGI [49]: > 100 µM
- GI50 [50]: 29.8 µM
- TGI [50]: 96.1 µM
- GI50 [51]: 15.1 µM
- TGI [51]: 34.2 µM
- GI50 [52]: 32.5 µM
- TGI [52]: > 100 µM

SMILES: Clc1ccc(-c2cnc3c(-c4ccnc(N5CCNCC5)c4)cnn3c2)cc1
- GI50 [1]: 1.89 µM
- TGI [1]: 3.53 µM
- GI50 [2]: 1.91 µM
- TGI [2]: 3.48 µM
- GI50 [3]: 1.25 µM
- TGI [3]: 3.26 µM
- GI50 [53]: 2.02 µM
- TGI [53]: 4.03 µM
- GI50 [4]: 1.83 µM
- TGI [4]: 3.22 µM
- GI50 [5]: 1.86 µM
- TGI [5]: 3.31 µM
- GI50 [6]: 1.96 µM
- TGI [6]: 3.42 µM
- GI50 [7]: 1.82 µM
- TGI [7]: 3.29 µM
- GI50 [8]: 1.24 µM
- TGI [8]: 2.53 µM
- GI50 [9]: 1.74 µM
- TGI [9]: 3.7 µM
- GI50 [10]: 1.75 µM
- TGI [10]: 3.7 µM
- GI50 [11]: 1.65 µM
- TGI [11]: 3.06 µM
- GI50 [12]: 1.9 µM
- TGI [12]: 3.51 µM
- GI50 [13]: 1.84 µM
- TGI [13]: 3.74 µM
- GI50 [14]: 2.7 µM
- TGI [14]: 5.18 µM
- GI50 [15]: 1.6 µM
- TGI [15]: 3.02 µM
- GI50 [54]: 21.4 µM
- TGI [54]: 44.7 µM
- GI50 [16]: 1.56 µM
- TGI [16]: 2.91 µM
- GI50 [17]: 1.71 µM
- TGI [17]: 3.09 µM
- GI50 [18]: 2.37 µM
- TGI [18]: 5.89 µM
- GI50 [19]: 1.61 µM
- TGI [19]: 3.59 µM
- GI50 [55]: 1.79 µM
- TGI [55]: 3.2 µM
- GI50 [56]: 1.6 µM
- TGI [56]: 4.58 µM
- GI50 [20]: 1.99 µM
- TGI [20]: 3.66 µM
- GI50 [21]: 1.7 µM
- TGI [21]: 3.34 µM
- GI50 [22]: 1.85 µM
- TGI [22]: 5.72 µM
- GI50 [23]: 1.78 µM
- TGI [23]: 3.27 µM
- GI50 [24]: 1.79 µM
- TGI [24]: 3.22 µM
- GI50 [25]: 1.82 µM
- TGI [25]: 3.8 µM
- GI50 [26]: 2.02 µM
- TGI [26]: 3.51 µM
- GI50 [57]: 2.14 µM
- TGI [57]: 3.77 µM
- GI50 [27]: 1.86 µM
- TGI [27]: 4.05 µM
- GI50 [28]: 1.99 µM
- TGI [28]: 3.43 µM
- GI50 [29]: 1.88 µM
- TGI [29]: 3.57 µM
- GI50 [30]: 1.89 µM
- TGI [30]: 3.51 µM
- GI50 [31]: 2.07 µM
- TGI [31]: 5.13 µM
- GI50 [32]: 2.72 µM
- TGI [32]: 5.63 µM
- GI50 [33]: 0.561 µM
- TGI [33]: 1.69 µM
- GI50 [34]: 1.74 µM
- TGI [34]: 3.29 µM
- GI50 [35]: 1.87 µM
- TGI [35]: 3.43 µM
- GI50 [37]: 3.34 µM
- TGI [37]: 11.6 µM
- GI50 [39]: 1.96 µM
- TGI [39]: 3.69 µM
- GI50 [40]: 1.64 µM
- TGI [40]: 3.02 µM
- GI50 [42]: 2.09 µM
- TGI [42]: 3.72 µM
- GI50 [43]: 1.92 µM
- TGI [43]: 3.38 µM
- GI50 [44]: 1.85 µM
- TGI [44]: 3.66 µM
- GI50 [45]: 2.08 µM
- TGI [45]: 3.82 µM
- GI50 [46]: 1.83 µM
- TGI [46]: 3.5 µM
- GI50 [47]: 1.89 µM
- TGI [47]: 3.72 µM
- GI50 [48]: 1.61 µM
- TGI [48]: 3.09 µM
- GI50 [49]: 1.91 µM
- TGI [49]: 3.69 µM
- GI50 [50]: 2 µM
- TGI [50]: 3.46 µM
- GI50 [51]: 2.06 µM
- TGI [51]: 3.91 µM
- GI50 [52]: 2.21 µM
- TGI [52]: 4.31 µM
